Columns and labels:
[1] = 0.25 h and 1 h after single i.v. injection
Procedure: Then, 0.25 h and 1 h after the injection, the colorectal and tumor tissue were removed, rinsed with saline, and blotted dry.

LS180 and HCT116 cells = test: Western blot of DNA damage and apoptosis related proteins; format: cell-based; details: 0.01 and 0.03 μM, compared to control
Procedure: Effects of PCC0208037 on the protein expression levels were examined by Western blotting, as described previously. Briefly, 2 × 10^6 LS180 and HCT116 cells were seeded in 10-cm dishes to adhere overnight. […] At the desired time points, cells were washed twice with a cold PBS. Then, cells were lysed in the RIPA buffer for 30 min on ice. The RIPA buffer contains protease inhibitors and phosphatase inhibitors. After sonication, the samples were centrifuged at 12,000 rpm, and then the supernatants were harvested and assayed for the protein concentration. Equal amounts of protein (30 μg) were separated with a polyacrylamide gel and transferred to a PVDF membrane. The membranes were blocked for 2 h (in 5% skim milk) and then incubated with primary antibodies overnight at 4 °C: ATM p-ATM, ATR, p-ATR, Chk1, p-Chk1, Chk2, p-Chk2, P53, p-P53, Bcl2, gamma H2AX, Bax, Puma, β-actin, and GAPDH. Then, the membranes were incubated with secondary antibodies for 2 h at room temperature. All these antibodies were diluted to a 1:1000 concentration in use. The immunoblots were visualized by a BeyoECL Plus enhanced chemiluminescence system.
Figure 6 Effects of PCC0208037 on molecules related to DNA damage in CRC cells. […]

recombinant Topo I = target: T1, recombinant Topo I (Homo sapiens, UniProt P11387); test: Topoisomerase I activity assay (DNA relaxation); format: biochemical; details: PCC0208037 100 and 10 nmol/L, SN-38 100 nmol/L, CPT-11 100 nmol/L; 30 min, 37 °C
T1 construct: purchased TopoGEN, Inc (Buena Vista, CO, USA) TG1018
T1 sequence (P11387 1-765): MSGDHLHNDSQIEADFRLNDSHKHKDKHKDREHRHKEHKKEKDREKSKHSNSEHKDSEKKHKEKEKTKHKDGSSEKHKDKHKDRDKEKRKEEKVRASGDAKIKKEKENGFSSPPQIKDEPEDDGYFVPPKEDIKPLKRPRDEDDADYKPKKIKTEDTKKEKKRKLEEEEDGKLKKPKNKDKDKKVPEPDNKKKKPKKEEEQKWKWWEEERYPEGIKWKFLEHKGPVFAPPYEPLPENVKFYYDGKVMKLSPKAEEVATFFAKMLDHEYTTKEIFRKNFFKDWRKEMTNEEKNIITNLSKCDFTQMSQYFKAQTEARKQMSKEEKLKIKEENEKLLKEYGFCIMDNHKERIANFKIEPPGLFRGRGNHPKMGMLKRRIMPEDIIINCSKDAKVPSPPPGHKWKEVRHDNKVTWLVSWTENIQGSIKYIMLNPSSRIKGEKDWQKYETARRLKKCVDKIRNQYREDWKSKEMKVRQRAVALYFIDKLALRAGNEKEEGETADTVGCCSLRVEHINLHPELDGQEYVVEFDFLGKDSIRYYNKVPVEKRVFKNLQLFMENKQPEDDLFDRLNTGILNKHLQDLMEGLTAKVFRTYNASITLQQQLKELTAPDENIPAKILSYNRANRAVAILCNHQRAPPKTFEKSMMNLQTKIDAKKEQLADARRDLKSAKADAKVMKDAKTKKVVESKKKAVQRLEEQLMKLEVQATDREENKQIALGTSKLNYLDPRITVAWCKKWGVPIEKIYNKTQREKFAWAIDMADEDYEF
Procedure: To determine whether PCC0208037 inhibited Topo I activity, a DNA relaxation assay was conducted. In this assay, supercoiled plasmid DNA was relaxed and nicked by recombinant Topo I, while no nicked DNA would be found when the Topo I enzyme was inhibited.
A Topoisomerase I Drug Screening Kit was used to detect the inhibitory activity of PCC0208037 against Topo I in the cell-free system. 1 IU Topo I and 250 ng of supercoiled plasmid DNA were pre-incubated with DMSO, PCC0208037 (100 nmol/L and 10 nmol/L), SN-38(100 nmol/L), or CPT (100 nmol/L) in a reaction buffer with a final volume of 20 μL and incubated for 30 min at 37 °C; then, the reaction was stopped by the addition of 2 ul of 10% SDS. Then, proteinase K was added to 50 ug/mL, incubated for 15 min at 37 °C, and 0.1 vol. of a loading buffer (0.25% bromophenol blue, 50% glycerol) was added. The supercoiled, relaxed, or nicked DNA was separated by 1% agarose gel in a 1 TAE (Tris-Acetate-EDTA) buffer. Ethidium bromide-stained agarose gel was photographed using Gel Doc XR.
Figure 4 Inhibition of Topo I activity by PCC0208037. […] Plasmid DNA was separated by an agarose gel and stained with ethidium bromide.

[2] = PCC0208037- and CPT-11-induced toxicity in mice; details: 50 mg/kg/day i.p. for four days
LS180 cells = test: Flow cytometry cell cycle and apoptosis assay; format: cell-based; details: LS180, 24, 48 and 72 h
Procedure: Cell cycle analysis and an Apoptosis Assessment were performed using flow cytometry. LS180 cells were seeded in 6-well plates at a density of 1 × 10^5 cells per well for 12 h, and then different concentrations of PCC0208037 were added for 24, 48, and 72 h, respectively. Cells were stained with PI- or PI/FITC-labeled annexin, and the effects of PCC0208037 on cell cycle progression and apoptosis were analyzed by flow cytometry.
Figure 5 PCC0208037 induced G2/M phase arrest and apoptosis in LS180 cells. (A) Cells were treated with multiple concentrations of PCC0208037 for 24, 48, and 72 h and then analyzed by flow cytometry with PI staining. (B). Cells were treated with multiple concentrations of PCC0208037 for 24, 48, and 72 h and then analyzed by flow cytometry with annexin VeFITC staining. The data were expressed as the mean ± SD (n = 3). * p < 0.05 as compared to the control.

CCc1c2c(nc3ccc(O)cc13)-c1cc3c(c(=O)n1C2)COC(=O)[C@@]3(CC)OC(=O)Nc1nc(=O)n([C@@H]2O[C@H](C)[C@@H](O)[C@H]2O)cc1F [PCC0208037]
concentration in the colorectal tissue compared with CPT-11 [1]: significantly lower than CPT-11 | protein levels of molecules associated with DNA damage (LS180 and HCT116 cells; 8 h): significantly up-regulated the protein levels of γ-H2AX, p-ATM, p-Chk1, p-Chk2, p-P53, and P53 | protein levels of molecules associated with apoptosis (LS180 and HCT116 cells; 24 h): significantly up-regulated the protein levels of BAX and PUMA and down-regulated the protein level of Bcl-2 | inhibition of Topo I activity (supercoiled plasmid DNA relaxation) (recombinant Topo I): dose-dependently increased the presence of supercoiled DNA | colorectal tissue histomorphological examination (H&E) ([2]; colon after 7 days): A mild reduction of goblet cells and a mild infiltration of lymphocytes | mortality ([2]; seven-day observation): No animal died | recovery of body weight and food intake decrease ([2]; seven-day observation): began to recover on the 6th day onwards | percentage of apoptotic cells (LS180 cells; FITC annexin V staining): significantly increased the percentage of apoptotic cells | ratio of cells in the G2/M phase (LS180 cells; PI staining): significantly increased the ratio of the cells in the G2/M phase

From PMC9862597, “Anti-Colorectal Cancer Effects of a Novel Camptothecin Derivative PCC0208037 In Vitro and In Vivo” (Pharmaceuticals, 2022)
